# PubChem BioAssay (NCI)
#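 How tested: cells in 96-well plates exposed to compound for 48 hours at five concentrations. TGI is the concentration that stops growth completely.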
# Legend:
# Assay in all cases: NCI-60 cell line screen, 48 h
# [1] = tested on: UACC-62 melanoma
# [2] = tested on: MDA-N
# [3] = tested on: T-47D breast
# [4] = tested on: OVCAR-4 ovarian
# [5] = tested on: LOX IMVI melanoma
# [6] = tested on: BT-549 breast
# [7] = tested on: M14 melanoma
# [8] = tested on: IGROV1 ovarian
# [9] = tested on: HCC-2998 colon
# [10] = tested on: NCI-H226 lung
# [11] = tested on: SN12C renal
# [12] = tested on: SK-MEL-28 melanoma
# [13] = tested on: SK-MEL-2 melanoma
# [14] = tested on: UACC-257 melanoma
# [15] = tested on: HOP-62 NSCLC
# [16] = tested on: HL-60(TB) leukemia
# [17] = tested on: RPMI-8226 leukemia
# [18] = tested on: MCF7 breast
# [19] = tested on: U251 CNS
# [20] = tested on: SK-OV-3 ovarian
# [21] = tested on: HCT-116 colon
# [22] = tested on: DU-145 prostate
# [23] = tested on: CCRF-CEM leukemia
# [24] = tested on: COLO 205 colon
# [25] = tested on: MDA-MB-435
# [26] = tested on: MOLT-4 leukemia
# [27] = tested on: SNB-19 CNS
# [28] = tested on: HOP-92 NSCLC
# [29] = tested on: NCI-H460 lung
# [30] = tested on: HS 578T breast
# [31] = tested on: HT29 colon
# [32] = tested on: UO-31 renal
# [33] = tested on: MALME-3M melanoma
# [34] = tested on: K-562 leukemia
# [35] = tested on: A498 renal
# [36] = tested on: SNB-75 CNS
# [37] = tested on: RXF 393 renal
# [38] = tested on: OVCAR-3 ovarian
# [39] = tested on: NCI-H23 lung
# [40] = tested on: SK-MEL-5 melanoma
# [41] = tested on: SW-620 colon
# [42] = tested on: PC-3 prostate
# [43] = tested on: OVCAR-5 ovarian
# [44] = tested on: SR leukemia
# [45] = tested on: OVCAR-8 ovarian
# [46] = tested on: SF-295 CNS
# [47] = tested on: NCI/ADR-RES ovarian
# [48] = tested on: CAKI-1 renal
# [49] = tested on: HCT-15 colon
# [50] = tested on: TK-10 renal
# [51] = tested on: KM12 colon
# [52] = tested on: EKVX NSCLC
# [53] = tested on: NCI-H522 lung
# [54] = tested on: MDA-MB-231 breast
# [55] = tested on: A549 NSCLC
# [56] = tested on: 786-0 renal
# [57] = tested on: SF-268 CNS
# [58] = tested on: ACHN renal
# [59] = tested on: SF-539 CNS
compound,measurement,setting,value
C=CCOC1OC(CS(=O)(=O)O)C(OC(C)=O)C(OC(C)=O)C1OC(C)=O (stereo not given),TGI,[1],> 100 µM
same,TGI,[2],> 100 µM
same,TGI,[3],> 100 µM
same,TGI,[4],> 100 µM
same,TGI,[5],> 100 µM
same,TGI,[6],> 100 µM
same,TGI,[7],> 100 µM
same,TGI,[8],> 100 µM
same,TGI,[9],> 100 µM
same,TGI,[10],> 100 µM
same,TGI,[11],> 100 µM
same,TGI,[12],> 100 µM
same,TGI,[13],> 100 µM
same,TGI,[14],> 100 µM
same,TGI,[15],> 100 µM
same,TGI,[16],> 100 µM
same,TGI,[17],> 100 µM
same,TGI,[18],> 100 µM
same,TGI,[19],> 100 µM
same,TGI,[20],> 100 µM
same,TGI,[21],> 100 µM
same,TGI,[22],> 100 µM
same,TGI,[23],> 100 µM
same,TGI,[24],> 100 µM
same,TGI,[25],> 100 µM
same,TGI,[26],> 100 µM
same,TGI,[27],> 100 µM
same,TGI,[28],> 100 µM
same,TGI,[29],> 100 µM
same,TGI,[30],> 100 µM
same,TGI,[31],> 100 µM
same,TGI,[32],> 100 µM
same,TGI,[33],> 100 µM
same,TGI,[34],> 100 µM
same,TGI,[35],> 100 µM
same,TGI,[36],> 100 µM
same,TGI,[37],> 100 µM
same,TGI,[38],> 100 µM
same,TGI,[39],> 100 µM
same,TGI,[40],> 100 µM
same,TGI,[41],> 100 µM
same,TGI,[42],> 100 µM
same,TGI,[43],> 100 µM
same,TGI,[44],> 100 µM
same,TGI,[45],> 100 µM
same,TGI,[46],> 100 µM
same,TGI,[47],> 100 µM
same,TGI,[48],> 100 µM
same,TGI,[49],> 100 µM
same,TGI,[50],> 100 µM
same,TGI,[51],> 100 µM
Cc1ccc2c(=O)c(C(=O)NNC(=S)NC3CCCCC3)c[nH]c2n1,TGI,[1],> 100 µM
same,TGI,[2],> 100 µM
same,TGI,[3],> 100 µM
same,TGI,[4],> 100 µM
same,TGI,[5],> 100 µM
same,TGI,[6],> 100 µM
same,TGI,[7],> 100 µM
same,TGI,[8],> 100 µM
same,TGI,[10],> 100 µM
same,TGI,[11],> 100 µM
same,TGI,[12],> 100 µM
same,TGI,[13],> 100 µM
same,TGI,[14],> 100 µM
same,TGI,[15],> 100 µM
same,TGI,[16],> 100 µM
same,TGI,[17],> 100 µM
same,TGI,[52],> 100 µM
same,TGI,[18],> 100 µM
same,TGI,[19],> 100 µM
same,TGI,[21],> 100 µM
same,TGI,[22],> 100 µM
same,TGI,[23],> 100 µM
same,TGI,[24],> 100 µM
same,TGI,[25],89 µM
same,TGI,[26],> 100 µM
same,TGI,[27],> 100 µM
same,TGI,[53],> 100 µM
same,TGI,[29],> 100 µM
same,TGI,[30],> 100 µM
same,TGI,[31],> 100 µM
same,TGI,[32],> 100 µM
same,TGI,[54],> 100 µM
same,TGI,[33],> 100 µM
same,TGI,[34],> 100 µM
same,TGI,[35],> 100 µM
same,TGI,[37],> 100 µM
same,TGI,[55],> 100 µM
same,TGI,[38],> 100 µM
same,TGI,[39],> 100 µM
same,TGI,[40],> 100 µM
same,TGI,[56],> 100 µM
same,TGI,[41],> 100 µM
same,TGI,[57],> 100 µM
same,TGI,[42],> 100 µM
same,TGI,[58],> 100 µM
same,TGI,[43],> 100 µM
same,TGI,[45],> 100 µM
same,TGI,[46],> 100 µM
same,TGI,[47],> 100 µM
same,TGI,[48],> 100 µM
same,TGI,[49],> 100 µM
same,TGI,[50],> 100 µM
same,TGI,[51],> 100 µM
CO/N=C(\C(=O)[N-][n+]1cnn(CC(=O)O)c1)c1csc(N)n1,TGI,[1],> 10 µM
same,TGI,[2],> 10 µM
same,TGI,[3],> 10 µM
same,TGI,[4],> 10 µM
same,TGI,[5],> 10 µM
same,TGI,[6],> 10 µM
same,TGI,[7],> 10 µM
same,TGI,[8],> 10 µM
same,TGI,[9],> 10 µM
same,TGI,[11],> 10 µM
same,TGI,[12],> 10 µM
same,TGI,[14],> 10 µM
same,TGI,[15],> 10 µM
same,TGI,[16],> 10 µM
same,TGI,[17],> 10 µM
same,TGI,[52],> 10 µM
same,TGI,[18],> 10 µM
same,TGI,[20],> 10 µM
same,TGI,[21],> 10 µM
same,TGI,[22],> 10 µM
same,TGI,[23],> 10 µM
same,TGI,[24],> 10 µM
same,TGI,[26],> 10 µM
same,TGI,[28],> 10 µM
same,TGI,[29],> 10 µM
same,TGI,[31],> 10 µM
same,TGI,[54],> 10 µM
same,TGI,[34],> 10 µM
same,TGI,[36],> 10 µM
same,TGI,[55],> 10 µM
same,TGI,[39],> 10 µM
same,TGI,[40],> 10 µM
same,TGI,[56],> 10 µM
same,TGI,[41],> 10 µM
same,TGI,[57],> 10 µM
same,TGI,[58],> 10 µM
same,TGI,[44],> 10 µM
same,TGI,[45],> 10 µM
same,TGI,[48],> 10 µM
same,TGI,[49],> 10 µM
same,TGI,[50],> 10 µM
same,TGI,[51],> 10 µM
COc1cc(=O)oc(/C=C/C=C/C=C/C(C)=C\C2(C)OC(C)C(C)(O)C2O)c1C (stereo not given),TGI,[1],> 100 µM
same,TGI,[2],> 100 µM
same,TGI,[3],> 100 µM
same,TGI,[5],> 100 µM
same,TGI,[6],> 100 µM
same,TGI,[7],> 100 µM
same,TGI,[8],> 100 µM
same,TGI,[10],> 100 µM
same,TGI,[11],> 100 µM
same,TGI,[12],> 100 µM
same,TGI,[13],> 100 µM
same,TGI,[14],> 100 µM
same,TGI,[59],> 100 µM
same,TGI,[15],> 100 µM
same,TGI,[16],> 100 µM
same,TGI,[17],> 100 µM
same,TGI,[52],> 100 µM
same,TGI,[18],> 100 µM
same,TGI,[19],> 100 µM
same,TGI,[20],> 100 µM
same,TGI,[21],> 100 µM
same,TGI,[22],> 100 µM
same,TGI,[23],> 100 µM
same,TGI,[24],> 100 µM
same,TGI,[25],> 100 µM
same,TGI,[26],> 100 µM
same,TGI,[27],> 100 µM
same,TGI,[28],> 100 µM
same,TGI,[29],> 100 µM
same,TGI,[30],> 100 µM
same,TGI,[31],> 100 µM
same,TGI,[32],> 100 µM
same,TGI,[54],> 100 µM
same,TGI,[34],> 100 µM
same,TGI,[35],> 100 µM
same,TGI,[36],> 100 µM
same,TGI,[55],> 100 µM
same,TGI,[38],> 100 µM
same,TGI,[39],> 100 µM
same,TGI,[40],> 100 µM
same,TGI,[56],> 100 µM
same,TGI,[41],> 100 µM
same,TGI,[57],> 100 µM
same,TGI,[42],> 100 µM
same,TGI,[58],> 100 µM
same,TGI,[43],> 100 µM
same,TGI,[44],> 100 µM
same,TGI,[45],> 100 µM
same,TGI,[46],> 100 µM
same,TGI,[47],> 100 µM
same,TGI,[48],> 100 µM
same,TGI,[49],> 100 µM
same,TGI,[50],> 100 µM
same,TGI,[51],> 100 µM
